Assay results from US20100196462A1, “Method for Manufacturing a Pharmaceutical Form of Oseltamivir Phosphate” (priority 2006, published 2010).

Assay: Density of the oseltamivir phosphate active ingredient before densification (pharmacotechnical tests)
Format: physicochemical
Details: active ingredient as received, without densification

## CCOC(=O)C1=C[C@@H](OC(CC)CC)[C@H](NC(C)=O)[C@@H](N)C1 [oseltamivir phosphate]
  density: approximately 0.1 g/cm^3
